Holding throughout (conditions): Compound concentration 10 µM
Test [1] addresses Sigma non-opioid intracellular receptor 1 (Homo sapiens) (UniProt Q99720).
Description: PDSP Primary Binding target: SIGMAR1 - Compounds are tested at 10 uM concentration, plate are incubated at room temperature in the dark for 90 minutes. Reaction are stopped by vacuum filtration onto 0.3% polyethyleneimine soaked filter mats using Filtermate harvester. Scintilation cocktail is then melted onto microwave-dried filters on a hot plate and the radio activity is counted in Microbia counter.
Test [2] addresses T1, Muscarinic acetylcholine receptor M4 (Homo sapiens) (UniProt P08173).
T1 sequence (whole entry): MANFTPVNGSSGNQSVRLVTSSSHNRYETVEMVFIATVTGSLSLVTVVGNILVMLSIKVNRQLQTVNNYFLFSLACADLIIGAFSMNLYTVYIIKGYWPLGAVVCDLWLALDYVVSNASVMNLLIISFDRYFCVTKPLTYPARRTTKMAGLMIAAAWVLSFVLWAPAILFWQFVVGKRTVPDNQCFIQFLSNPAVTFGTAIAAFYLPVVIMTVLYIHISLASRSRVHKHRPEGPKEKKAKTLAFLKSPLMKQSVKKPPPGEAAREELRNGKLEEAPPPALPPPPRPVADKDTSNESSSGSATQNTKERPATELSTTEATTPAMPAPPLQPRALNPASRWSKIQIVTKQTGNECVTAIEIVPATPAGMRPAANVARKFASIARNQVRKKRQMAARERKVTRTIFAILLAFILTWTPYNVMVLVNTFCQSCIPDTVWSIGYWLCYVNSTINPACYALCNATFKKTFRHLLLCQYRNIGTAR
Description: PDSP Primary Binding target: CHRM4 - Compounds are tested at 10 uM concentration, plate are incubated at room temperature in the dark for 90 minutes. Reaction are stopped by vacuum filtration onto 0.3% polyethyleneimine soaked filter mats using Filtermate harvester. Scintilation cocktail is then melted onto microwave-dried filters on a hot plate and the radio activity is counted in Microbia counter.

The target in test [3] is T2, Alpha-1A adrenergic receptor (Homo sapiens) (UniProt P35348).
T2 sequence (whole entry): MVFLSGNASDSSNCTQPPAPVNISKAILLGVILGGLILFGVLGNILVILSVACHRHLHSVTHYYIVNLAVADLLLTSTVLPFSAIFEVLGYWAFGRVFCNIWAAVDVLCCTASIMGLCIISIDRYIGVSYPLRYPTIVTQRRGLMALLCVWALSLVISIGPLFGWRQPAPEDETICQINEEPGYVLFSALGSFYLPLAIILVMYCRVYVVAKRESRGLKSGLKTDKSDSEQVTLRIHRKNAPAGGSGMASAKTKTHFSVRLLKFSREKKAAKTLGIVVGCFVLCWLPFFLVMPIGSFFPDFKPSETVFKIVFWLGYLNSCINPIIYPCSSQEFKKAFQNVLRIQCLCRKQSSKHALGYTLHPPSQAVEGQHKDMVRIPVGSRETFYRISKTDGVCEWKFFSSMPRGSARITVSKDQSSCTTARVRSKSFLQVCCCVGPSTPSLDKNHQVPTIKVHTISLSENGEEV
Description: PDSP Primary Binding target: ADRA1A - Compounds are tested at 10 uM concentration, plate are incubated at room temperature in the dark for 90 minutes. Reaction are stopped by vacuum filtration onto 0.3% polyethyleneimine soaked filter mats using Filtermate harvester. Scintilation cocktail is then melted onto microwave-dried filters on a hot plate and the radio activity is counted in Microbia counter.

Test [4] addresses Beta-3 adrenergic receptor (Homo sapiens) (UniProt P13945).
Description: PDSP Primary Binding target: ADRB3 - Compounds are tested at 10 uM concentration, plate are incubated at room temperature in the dark for 90 minutes. Reaction are stopped by vacuum filtration onto 0.3% polyethyleneimine soaked filter mats using Filtermate harvester. Scintilation cocktail is then melted onto microwave-dried filters on a hot plate and the radio activity is counted in Microbia counter.
Test [5] concerns the target T3, Muscarinic acetylcholine receptor M5 (Homo sapiens) (UniProt P08912).
T3 sequence (whole entry): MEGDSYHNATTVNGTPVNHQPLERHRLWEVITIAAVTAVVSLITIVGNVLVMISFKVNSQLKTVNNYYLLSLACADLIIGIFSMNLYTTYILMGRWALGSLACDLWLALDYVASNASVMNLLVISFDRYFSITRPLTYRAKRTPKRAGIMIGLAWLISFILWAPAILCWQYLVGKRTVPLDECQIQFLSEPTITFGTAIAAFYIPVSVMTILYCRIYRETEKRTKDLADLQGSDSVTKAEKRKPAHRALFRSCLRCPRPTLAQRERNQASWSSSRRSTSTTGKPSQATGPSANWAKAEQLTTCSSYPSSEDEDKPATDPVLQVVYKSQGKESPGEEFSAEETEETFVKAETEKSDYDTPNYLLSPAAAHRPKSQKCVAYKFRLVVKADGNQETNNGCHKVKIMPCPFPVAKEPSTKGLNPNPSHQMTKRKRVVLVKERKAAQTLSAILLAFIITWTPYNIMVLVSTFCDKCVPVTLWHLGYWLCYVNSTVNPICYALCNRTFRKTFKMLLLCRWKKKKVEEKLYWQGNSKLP
Description: PDSP Primary Binding target: CHRM5 - Compounds are tested at 10 uM concentration, plate are incubated at room temperature in the dark for 90 minutes. Reaction are stopped by vacuum filtration onto 0.3% polyethyleneimine soaked filter mats using Filtermate harvester. Scintilation cocktail is then melted onto microwave-dried filters on a hot plate and the radio activity is counted in Microbia counter.

Test [6] concerns the target D(2) dopamine receptor (Homo sapiens) (UniProt P14416).
Description: PDSP Primary Binding target: DRD2 - Compounds are tested at 10 uM concentration, plate are incubated at room temperature in the dark for 90 minutes. Reaction are stopped by vacuum filtration onto 0.3% polyethyleneimine soaked filter mats using Filtermate harvester. Scintilation cocktail is then melted onto microwave-dried filters on a hot plate and the radio activity is counted in Microbia counter.
Test [7] deals with D(1B) dopamine receptor (Homo sapiens) (UniProt P21918).
Description: PDSP Primary Binding target: DRD5 - Compounds are tested at 10 uM concentration, plate are incubated at room temperature in the dark for 90 minutes. Reaction are stopped by vacuum filtration onto 0.3% polyethyleneimine soaked filter mats using Filtermate harvester. Scintilation cocktail is then melted onto microwave-dried filters on a hot plate and the radio activity is counted in Microbia counter.
Test [8] deals with Muscarinic acetylcholine receptor M3 (Homo sapiens) (UniProt P20309).
Description: PDSP Primary Binding target: CHRM3 - Compounds are tested at 10 uM concentration, plate are incubated at room temperature in the dark for 90 minutes. Reaction are stopped by vacuum filtration onto 0.3% polyethyleneimine soaked filter mats using Filtermate harvester. Scintilation cocktail is then melted onto microwave-dried filters on a hot plate and the radio activity is counted in Microbia counter.
The target in test [9] is T4, Muscarinic acetylcholine receptor M1 (Homo sapiens) (UniProt P11229).
T4 sequence (whole entry): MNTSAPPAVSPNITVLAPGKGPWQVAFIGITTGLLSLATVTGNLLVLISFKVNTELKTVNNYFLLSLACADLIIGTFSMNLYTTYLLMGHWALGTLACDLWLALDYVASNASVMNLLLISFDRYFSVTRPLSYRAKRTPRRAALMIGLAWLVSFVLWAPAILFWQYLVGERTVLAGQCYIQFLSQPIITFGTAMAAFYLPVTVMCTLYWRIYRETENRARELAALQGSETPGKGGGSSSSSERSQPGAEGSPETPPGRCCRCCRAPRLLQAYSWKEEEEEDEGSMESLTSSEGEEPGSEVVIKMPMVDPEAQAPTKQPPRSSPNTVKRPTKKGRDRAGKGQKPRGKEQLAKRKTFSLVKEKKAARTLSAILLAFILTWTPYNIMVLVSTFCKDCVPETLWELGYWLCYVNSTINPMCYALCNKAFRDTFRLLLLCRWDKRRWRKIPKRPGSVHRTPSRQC
Description: PDSP Primary Binding target: CHRM1 - Compounds are tested at 10 uM concentration, plate are incubated at room temperature in the dark for 90 minutes. Reaction are stopped by vacuum filtration onto 0.3% polyethyleneimine soaked filter mats using Filtermate harvester. Scintilation cocktail is then melted onto microwave-dried filters on a hot plate and the radio activity is counted in Microbia counter.

Test [10] has as its target D(1A) dopamine receptor (Homo sapiens) (UniProt P21728).
Description: PDSP Primary Binding target: DRD1 - Compounds are tested at 10 uM concentration, plate are incubated at room temperature in the dark for 90 minutes. Reaction are stopped by vacuum filtration onto 0.3% polyethyleneimine soaked filter mats using Filtermate harvester. Scintilation cocktail is then melted onto microwave-dried filters on a hot plate and the radio activity is counted in Microbia counter.
In test [11] the target is Sodium-dependent dopamine transporter (Homo sapiens) (UniProt Q01959).
Description: PDSP Primary Binding target: SLC6A3 - Compounds are tested at 10 uM concentration, plate are incubated at room temperature in the dark for 90 minutes. Reaction are stopped by vacuum filtration onto 0.3% polyethyleneimine soaked filter mats using Filtermate harvester. Scintilation cocktail is then melted onto microwave-dried filters on a hot plate and the radio activity is counted in Microbia counter.
For test [12], the target named is Sodium-dependent noradrenaline transporter (Homo sapiens) (UniProt P23975).
Description: PDSP Primary Binding target: SLC6A2 - Compounds are tested at 10 uM concentration, plate are incubated at room temperature in the dark for 90 minutes. Reaction are stopped by vacuum filtration onto 0.3% polyethyleneimine soaked filter mats using Filtermate harvester. Scintilation cocktail is then melted onto microwave-dried filters on a hot plate and the radio activity is counted in Microbia counter.
The target of test [13] is 5-hydroxytryptamine receptor 1D (Homo sapiens) (UniProt P28221).
Description: PDSP Primary Binding target: HTR1D - Compounds are tested at 10 uM concentration, plate are incubated at room temperature in the dark for 90 minutes. Reaction are stopped by vacuum filtration onto 0.3% polyethyleneimine soaked filter mats using Filtermate harvester. Scintilation cocktail is then melted onto microwave-dried filters on a hot plate and the radio activity is counted in Microbia counter.
The target of test [14] is Histamine H3 receptor (Homo sapiens) (UniProt Q9Y5N1).
Description: PDSP Primary Binding target: HRH3 - Compounds are tested at 10 uM concentration, plate are incubated at room temperature in the dark for 90 minutes. Reaction are stopped by vacuum filtration onto 0.3% polyethyleneimine soaked filter mats using Filtermate harvester. Scintilation cocktail is then melted onto microwave-dried filters on a hot plate and the radio activity is counted in Microbia counter.
Test [15] addresses Histamine H2 receptor (Homo sapiens) (UniProt P25021).
Description: PDSP Primary Binding target: HRH2 - Compounds are tested at 10 uM concentration, plate are incubated at room temperature in the dark for 90 minutes. Reaction are stopped by vacuum filtration onto 0.3% polyethyleneimine soaked filter mats using Filtermate harvester. Scintilation cocktail is then melted onto microwave-dried filters on a hot plate and the radio activity is counted in Microbia counter.
For test [16], the target named is 5-hydroxytryptamine receptor 1B (Homo sapiens) (UniProt P28222).
Description: PDSP Primary Binding target: HTR1B - Compounds are tested at 10 uM concentration, plate are incubated at room temperature in the dark for 90 minutes. Reaction are stopped by vacuum filtration onto 0.3% polyethyleneimine soaked filter mats using Filtermate harvester. Scintilation cocktail is then melted onto microwave-dried filters on a hot plate and the radio activity is counted in Microbia counter.
Test [17] concerns the target 5-hydroxytryptamine receptor 7 (Homo sapiens) (UniProt P34969).
Description: PDSP Primary Binding target: HTR7 - Compounds are tested at 10 uM concentration, plate are incubated at room temperature in the dark for 90 minutes. Reaction are stopped by vacuum filtration onto 0.3% polyethyleneimine soaked filter mats using Filtermate harvester. Scintilation cocktail is then melted onto microwave-dried filters on a hot plate and the radio activity is counted in Microbia counter.

Chain of Beta-3 adrenergic receptor (Homo sapiens) (P13945 whole entry, looked up): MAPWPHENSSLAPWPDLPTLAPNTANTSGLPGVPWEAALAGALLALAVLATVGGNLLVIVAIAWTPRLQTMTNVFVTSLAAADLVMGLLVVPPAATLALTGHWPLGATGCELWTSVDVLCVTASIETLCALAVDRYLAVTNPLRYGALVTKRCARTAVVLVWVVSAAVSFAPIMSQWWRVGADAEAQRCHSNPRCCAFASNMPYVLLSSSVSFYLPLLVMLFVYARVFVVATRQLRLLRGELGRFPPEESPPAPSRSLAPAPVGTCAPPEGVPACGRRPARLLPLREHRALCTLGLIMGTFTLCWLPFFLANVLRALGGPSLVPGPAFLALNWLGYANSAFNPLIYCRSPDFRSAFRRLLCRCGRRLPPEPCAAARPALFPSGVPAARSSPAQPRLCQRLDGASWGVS
Chain of D(2) dopamine receptor (Homo sapiens) (P14416 whole entry): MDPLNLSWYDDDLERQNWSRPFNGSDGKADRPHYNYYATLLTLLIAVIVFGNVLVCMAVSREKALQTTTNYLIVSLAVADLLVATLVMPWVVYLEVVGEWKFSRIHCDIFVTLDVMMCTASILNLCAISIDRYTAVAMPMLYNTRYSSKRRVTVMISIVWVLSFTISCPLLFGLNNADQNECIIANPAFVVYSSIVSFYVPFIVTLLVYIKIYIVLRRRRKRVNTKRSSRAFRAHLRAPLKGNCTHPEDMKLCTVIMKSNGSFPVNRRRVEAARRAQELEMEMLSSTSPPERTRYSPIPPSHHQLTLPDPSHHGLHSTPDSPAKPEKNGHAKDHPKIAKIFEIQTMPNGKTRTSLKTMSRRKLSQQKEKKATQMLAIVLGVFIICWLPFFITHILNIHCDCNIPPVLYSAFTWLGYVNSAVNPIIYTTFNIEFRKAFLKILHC
Chain of D(1A) dopamine receptor (Homo sapiens) (P21728 whole entry): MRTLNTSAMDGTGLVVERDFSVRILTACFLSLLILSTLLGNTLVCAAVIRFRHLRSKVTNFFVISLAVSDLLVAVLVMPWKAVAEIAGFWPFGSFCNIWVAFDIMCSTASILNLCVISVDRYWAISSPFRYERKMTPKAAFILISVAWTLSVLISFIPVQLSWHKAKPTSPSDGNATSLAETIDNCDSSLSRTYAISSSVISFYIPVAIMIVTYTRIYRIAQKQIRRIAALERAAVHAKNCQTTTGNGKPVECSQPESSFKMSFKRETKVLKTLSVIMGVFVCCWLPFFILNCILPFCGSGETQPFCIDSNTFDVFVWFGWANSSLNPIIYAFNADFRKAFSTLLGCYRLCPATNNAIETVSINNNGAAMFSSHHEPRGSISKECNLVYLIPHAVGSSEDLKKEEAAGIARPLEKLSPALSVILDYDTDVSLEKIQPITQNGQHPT
Chain of Muscarinic acetylcholine receptor M3 (Homo sapiens) (P20309 whole entry, looked up): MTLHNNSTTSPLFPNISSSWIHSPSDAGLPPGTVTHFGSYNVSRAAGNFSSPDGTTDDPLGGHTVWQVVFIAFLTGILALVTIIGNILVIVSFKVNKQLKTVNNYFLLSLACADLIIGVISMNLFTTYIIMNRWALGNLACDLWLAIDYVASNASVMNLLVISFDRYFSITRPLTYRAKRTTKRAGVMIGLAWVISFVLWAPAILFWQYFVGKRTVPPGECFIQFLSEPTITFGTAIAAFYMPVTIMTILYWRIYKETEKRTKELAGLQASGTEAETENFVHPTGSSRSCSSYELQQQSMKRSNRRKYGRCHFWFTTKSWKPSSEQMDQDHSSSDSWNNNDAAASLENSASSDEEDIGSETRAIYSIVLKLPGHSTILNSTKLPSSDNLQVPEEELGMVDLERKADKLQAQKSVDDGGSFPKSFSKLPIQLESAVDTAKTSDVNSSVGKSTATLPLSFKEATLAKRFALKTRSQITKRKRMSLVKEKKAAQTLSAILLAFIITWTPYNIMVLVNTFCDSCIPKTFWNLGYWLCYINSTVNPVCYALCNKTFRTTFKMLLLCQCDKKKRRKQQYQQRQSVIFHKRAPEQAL
Chain of 5-hydroxytryptamine receptor 7 (Homo sapiens) (P34969 whole entry): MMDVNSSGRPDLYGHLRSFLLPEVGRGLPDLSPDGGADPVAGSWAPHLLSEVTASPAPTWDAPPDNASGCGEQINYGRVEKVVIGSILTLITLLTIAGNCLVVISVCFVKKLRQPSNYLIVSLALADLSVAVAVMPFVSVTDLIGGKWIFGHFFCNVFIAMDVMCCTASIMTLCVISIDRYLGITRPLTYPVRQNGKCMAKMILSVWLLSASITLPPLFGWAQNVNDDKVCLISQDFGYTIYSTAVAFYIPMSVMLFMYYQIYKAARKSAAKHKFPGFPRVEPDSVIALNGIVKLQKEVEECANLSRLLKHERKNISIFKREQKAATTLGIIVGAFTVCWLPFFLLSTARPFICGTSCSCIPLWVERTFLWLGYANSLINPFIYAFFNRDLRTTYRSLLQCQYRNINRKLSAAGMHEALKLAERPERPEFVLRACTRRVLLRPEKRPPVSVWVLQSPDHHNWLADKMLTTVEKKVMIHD
Chain of 5-hydroxytryptamine receptor 1B (Homo sapiens) (P28222 whole entry): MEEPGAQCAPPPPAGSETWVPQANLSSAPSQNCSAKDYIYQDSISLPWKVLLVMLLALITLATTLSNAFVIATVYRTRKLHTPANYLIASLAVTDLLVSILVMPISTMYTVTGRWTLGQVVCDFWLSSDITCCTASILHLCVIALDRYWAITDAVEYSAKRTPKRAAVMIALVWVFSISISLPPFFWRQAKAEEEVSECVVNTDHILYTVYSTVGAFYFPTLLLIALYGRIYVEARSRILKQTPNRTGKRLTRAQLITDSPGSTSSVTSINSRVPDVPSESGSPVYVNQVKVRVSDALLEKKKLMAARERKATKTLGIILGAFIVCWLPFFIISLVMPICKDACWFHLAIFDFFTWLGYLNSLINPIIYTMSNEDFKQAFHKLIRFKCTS
Chain of Sodium-dependent dopamine transporter (Homo sapiens) (Q01959 whole entry): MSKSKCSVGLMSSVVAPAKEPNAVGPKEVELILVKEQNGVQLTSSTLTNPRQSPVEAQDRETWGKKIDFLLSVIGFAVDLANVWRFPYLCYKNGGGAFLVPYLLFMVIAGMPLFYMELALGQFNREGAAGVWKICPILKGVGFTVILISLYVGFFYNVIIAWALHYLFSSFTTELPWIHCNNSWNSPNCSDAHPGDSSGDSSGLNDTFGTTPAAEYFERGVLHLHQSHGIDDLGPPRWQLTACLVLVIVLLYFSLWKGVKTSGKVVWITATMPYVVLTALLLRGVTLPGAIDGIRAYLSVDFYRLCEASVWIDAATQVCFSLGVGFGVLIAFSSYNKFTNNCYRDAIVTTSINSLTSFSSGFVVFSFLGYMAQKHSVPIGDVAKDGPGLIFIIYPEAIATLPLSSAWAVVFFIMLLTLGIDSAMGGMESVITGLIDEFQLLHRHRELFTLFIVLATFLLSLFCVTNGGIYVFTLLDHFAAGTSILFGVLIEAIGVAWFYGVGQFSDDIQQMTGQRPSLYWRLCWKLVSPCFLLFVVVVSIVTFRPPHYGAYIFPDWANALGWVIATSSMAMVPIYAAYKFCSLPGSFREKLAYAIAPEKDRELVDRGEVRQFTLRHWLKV
Chain of Sodium-dependent noradrenaline transporter (Homo sapiens) (P23975 whole entry): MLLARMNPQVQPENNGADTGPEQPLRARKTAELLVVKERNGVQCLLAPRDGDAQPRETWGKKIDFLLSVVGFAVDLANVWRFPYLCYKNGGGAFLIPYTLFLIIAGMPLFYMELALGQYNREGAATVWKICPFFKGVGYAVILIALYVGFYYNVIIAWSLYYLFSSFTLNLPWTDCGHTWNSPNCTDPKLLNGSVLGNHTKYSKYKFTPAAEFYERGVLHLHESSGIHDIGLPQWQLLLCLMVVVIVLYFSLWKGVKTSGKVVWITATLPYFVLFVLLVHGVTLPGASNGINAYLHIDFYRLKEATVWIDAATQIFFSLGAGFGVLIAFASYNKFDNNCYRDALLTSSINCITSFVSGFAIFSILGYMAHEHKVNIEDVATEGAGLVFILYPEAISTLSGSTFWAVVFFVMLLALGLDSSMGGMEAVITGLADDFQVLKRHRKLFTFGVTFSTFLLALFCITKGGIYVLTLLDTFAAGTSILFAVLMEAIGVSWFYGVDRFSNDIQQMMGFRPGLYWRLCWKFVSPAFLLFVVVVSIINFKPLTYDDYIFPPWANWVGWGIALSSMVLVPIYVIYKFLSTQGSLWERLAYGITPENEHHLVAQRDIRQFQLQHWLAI
Chain of D(1B) dopamine receptor (Homo sapiens) (P21918 whole entry): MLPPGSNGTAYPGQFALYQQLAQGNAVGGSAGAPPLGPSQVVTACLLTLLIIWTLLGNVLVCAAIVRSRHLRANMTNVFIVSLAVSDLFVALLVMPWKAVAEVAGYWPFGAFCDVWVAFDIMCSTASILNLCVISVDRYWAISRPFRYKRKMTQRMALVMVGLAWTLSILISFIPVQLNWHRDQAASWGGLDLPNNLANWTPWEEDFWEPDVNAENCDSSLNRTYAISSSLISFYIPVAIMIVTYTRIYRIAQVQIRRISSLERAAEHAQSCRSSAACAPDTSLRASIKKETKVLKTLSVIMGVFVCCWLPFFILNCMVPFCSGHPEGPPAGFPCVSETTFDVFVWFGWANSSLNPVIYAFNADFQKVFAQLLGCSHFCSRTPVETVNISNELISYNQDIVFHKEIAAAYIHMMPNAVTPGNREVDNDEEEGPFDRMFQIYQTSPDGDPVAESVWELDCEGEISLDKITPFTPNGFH
Chain of Histamine H3 receptor (Homo sapiens) (Q9Y5N1 whole entry): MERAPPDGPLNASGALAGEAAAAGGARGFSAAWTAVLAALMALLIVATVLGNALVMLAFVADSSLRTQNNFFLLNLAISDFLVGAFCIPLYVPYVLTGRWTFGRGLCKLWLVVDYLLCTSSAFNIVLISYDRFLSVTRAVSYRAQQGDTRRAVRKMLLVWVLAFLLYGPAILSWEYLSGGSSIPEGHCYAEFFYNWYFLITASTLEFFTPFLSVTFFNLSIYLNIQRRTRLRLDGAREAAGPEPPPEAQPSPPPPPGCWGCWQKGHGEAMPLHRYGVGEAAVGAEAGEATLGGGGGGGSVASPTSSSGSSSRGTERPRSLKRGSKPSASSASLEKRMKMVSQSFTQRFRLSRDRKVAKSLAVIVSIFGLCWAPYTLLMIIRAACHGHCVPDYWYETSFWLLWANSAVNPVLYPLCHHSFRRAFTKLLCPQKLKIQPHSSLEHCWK

As usually defined, the inhibition is the change of the read-out against control, counted positive when it falls. Turning to `Cc1cn2cc(CC(=O)N3CCC4(CC3)CN(Cc3ccc(-n5nccn5)cc3Cl)C4)nc2s1`, the inhibition in test [1] is 52.1%; in test [2], 87.5%; in test [3], -6.22%; in test [4] it was 25.6%; in test [5], 71.8%; in [6] it was 25.1%. Also, the inhibition in test [7] is -4.31%; in [8], 98.2%; in test [9] it was 51.1%; in [10], -5.26%; in test [11] it was 44.2%; in test [12] it was 44.3%. Further, the inhibition in test [13] was 4.85%; in test [14] it was 3.15%; in test [15], 60.1%.
With `Cc1cc([C@@H](C)Nc2cccc(-c3cc(C)c(C(=O)N[C@@H](C)C(=O)O)c(C)c3)c2)ccc1Cl`, the inhibition was 20% in test [1]; 7.41% in test [2]; 11.3% in test [3]; 70.7% in test [4]; 12.1% in test [16]; 7.32% in test [6]. Moreover, the inhibition in [7] was 5.13%; in test [8], -4.86%; in [17], 2.27%; in test [9] it was 21.2%; in [10], 14%; in test [11] it was 56.6%. Further, the inhibition in test [12] was 14.9%; in test [14], 10%; in test [15], 22.5%.
As to `O=C1O[C@]2(CC[C@H](C(=O)Nc3ccn(-c4ccccc4F)n3)CC2)c2cnccc21`, the inhibition is 4.97% in [1]; 3.84% in [4]; -3.32% in [16]; -6.98% in test [5]; 10.1% in test [6]; -8.27% in test [7]. Further, the inhibition is 2.94% in [8], -6% in test [9], 2.41% in test [14] and 2.76% in [15].
Take `O=C(O)CC1CCC2(CC1)CCN(c1cc(OC(F)(F)F)ccc1Cl)CC2`: the inhibition in test [1] is -0.46%; in [2], 7.8%; in test [3] it was -7.1%; in test [4], 17.5%; in test [16] it was -0.21%; in [5] it was -6.92%. Further, the inhibition in test [6] is 18.6%; in test [7], -2.48%; in [8] it was -5.1%; in test [9], -1.08%; in test [11], 7.81%; in test [12], 13.3%. The figures for the inhibition in [14] and in [15] were 7.59% and -4.3%, respectively.
Regarding `CN(C)S(=O)(=O)c1ccc(NC(=S)N2CCC(C(O)(c3ccccc3)c3ccccc3)CC2)cc1`, the inhibition is 45.3% in test [1]; -6.86% in test [2]; -0.67% in test [3]; 57.7% in test [4]; 23.4% in test [6]; 5.17% in test [7]. In addition, the inhibition is -7.46% in test [8]; 8.52% in [9]; 21.9% in test [10]; 33.1% in test [11]; 15.8% in [12]; 18.6% in [15].
Take `CC(C)Oc1ccccc1C(=O)Nc1ccccc1C(=O)Nc1cccc(S(=O)(=O)C(F)(F)F)c1`: the inhibition was -2.68% in test [2]; -8.65% in [3]; 1.49% in test [4]; -4.83% in test [5]; 7.06% in [6]; 4.49% in test [7]. In addition, the inhibition in test [8] was 13.1%; in [17] it was -3.5%; in [9] it was -6.91%; in test [14], -5.72%; in test [15], 36%.
As to `CCCNS(=O)(=O)Nc1ncnc(OCCOc2ncc(Br)cn2)c1-c1ccc(Br)cc1`, the inhibition in [1] was 15.8%; in [2], 6.06%; in test [4] it was 42.6%; in [16], -0.31%; in test [5], 11.6%; in test [6], 15.2%. The inhibition in [7] is -1.25%; in test [8], 20.8%; in test [11], 31.1%; in [12] it was 53.5%; in test [13] it was 9.11%; in test [14] it was 1.52%.
`CCOC(=O)c1cc(C#N)c(N2CCC(C(=O)NS(=O)(=O)Cc3ccccc3)CC2)nc1C`: the inhibition is 44.3% in test [1]; 18.3% in [2]; 33.7% in test [3]; 21.2% in [4]; 28.6% in test [5]; 13.7% in test [6]. Further, the inhibition is 0.26% in [10], 32.9% in test [11], 15% in test [14] and 17.2% in test [15].
For the compound `CC(C)NC(=O)c1ccc(C#Cc2ccncc2)cn1`, the inhibition is 68.4% in test [1]; 30.9% in test [2]; -5.19% in [3]; 29.8% in [4]; 43.2% in [5]; -3.71% in test [6]. The figures for the inhibition in [9], in test [11] and in test [15] were -0.6%, 24.2% and 25.7%, respectively.
Take `COc1cccc(-c2c(C)n(Cc3c(F)cccc3C(F)(F)F)c(=O)n(C[C@H](NCCCC(=O)O)c3ccccc3)c2=O)c1F`: the inhibition in test [1] was 2.12%; in test [2], 4.32%; in test [3], 7.84%; in [4] it was 44.5%; in test [16], 15.5%; in [6] it was 30.2%. Further, the inhibition in [7] was 0.96%; in test [8], -7.5%; in test [17], 34.2%; in test [9], 26.2%; in [10], -9.59%.

The values above are taken from ChEMBL document CHEMBL5442219.
